Test system: Dirofilaria immitis (JYD-34) resistant strain
Conditions: in vivo

## milbemycin oxime
  average worms per dog: 7.2 worms per dog
  efficacy (adult worm reduction versus untreated Group 1): 70.7%

Source: patent publication US10952988B2, “Methods for controlling the spread of dirofilariosis” (priority 2015, dated 2021)
